Earlier results, collected in US9248196B2, “Rebamipide complexes and cocrystals” (NUFORMIX LIMITED, priority 2011, dated 2016).
Read-outs that look alike come from different tables or passages of the source.

- solubility (in ethanol): very slightly soluble
- solubility (in methanol): very slightly soluble
- solubility (in water): practically insoluble
SMILES: O=C(NC(Cc1cc(=O)[nH]c2ccccc12)C(=O)O)c1ccc(Cl)cc1 (stereo not drawn) [Rebamipide, 2-(4-chlorobenzamido)-3-(2-oxo-1,2-dihydroquinolin-4-yl)propanoic acid]
